For 11 compounds, viability, T/C and IC50 results are on record in PubChem BioAssay AID1963839 (Molecular Pharmacology Branch, DTP, NCI, 2024).

Where “and” joins values, the source holds several entries; their conditions need not be identical. Identical values can stand only once. Where only a bound is given, the exact number is not on record here.

In the assay the test system is 817829-284-R-J1-PDC complex spheroid viability. Put plainly: Anticancer human tumor 817829-284-R-J1-PDC patient-derived colon adenocarcinoma cell line growth inhibition [POLQ]. The following applies: for viability, T/C: stronger effect = lower value; for IC50: curve of compound. The procedure:
Multicellular complex tumor spheroid response to Polymerase (POL) inhibitors (novobiocin, ART-558, RP6685) in combination with a variety of drugs and investigational agents in selected tumor cell lines
The POL inhibitors (novobiocin, ART-558, and RP6685) were evaluated both individually and in combination with standard of care and investigational anticancer small molecules within a complex spheroid model of solid tumors. . Complex spheroids include a stromal component modeled by human endothelial cells (HUVEC) and fibroblasts modeled by human mesenchymal stem cells (MSCs). The concentration ranges selected for each drug and investigational agent were based upon clinically achievable concentrations if the clinical Cmax of the agent was known.
Compounds. The drugs and investigational agents: novobiocin (NSC847541), ART-558 (NSC835418), RP-6685 (NSC848927), peposertib (NSC802822), ceralasertib (NSC780249), elimusertib (NSC800525), camonsertib (NSC841442), AZD-1390 (NSC803789), olaparib (NSC753686), talazoparib (NSC767125), rucaparib (NSC756644), sotorasib (NSC818433), MRTX-1133 (NSC836407), SN-38 (NSC673596), topotecan (NSC609699), epotoside (NSC141540), doxorubicin (NSC123127), gemcitabine (NSC613327), 5-fluorouracil (NSC19893), paclitaxel (NSC125973), vemurafenib (NSC761431), MSA-2 (NSC828583), SN-011 (NSC837082), adavosertib (NSC754352), prexasertib (NSC758257), carboplatin (NSC241240) and oxaliplatin (NSC266046), were obtained from the National Cancer Institute (NCI) Developmental Therapeutics Program Chemical Repository (21). The FDA-approved anticancer drug set is available from the Developmental Therapeutics Program at https://dtp.cancer.gov/organization/dscb/obtaining/. […] The stock solutions were prepared in dimethyl sulfoxide (DMSO, Sigma-Aldrich, St. Louis, MO, cat. D2650), except for the platinum compounds which were prepared in saline (Quality Biological, Gaithersburg, MD, cat. 114-055-101), at 800-fold the tested concentration and stored at -70 degrees C prior to their use. All drugs and investigational agents were tested over a range starting from a high concentration at or near the clinical Cmax and decreasing in half-log increments. If the clinical Cmax for an agent had not been determined, the highest concentration tested was 10 microM, except for SN-38, which was tested at a high concentration of 1 microM.
Cell Culture. All cells were maintained in an incubator at 37 degrees C and 5% CO2 with 95% humidity. The PDC lines were cultured according to standard operating procedures established by the NCI PDMR (https://pdmr.cancer.gov). Table 3 of the manuscript, lists the cell lines along with the number of the three cell types plated to form the mct-spheroids and media for tumor cell growth. After thawing, all PDC lines, except 997537-175-T-J1-PDC and 415267-285-R-J2-PDC, were cultured in Matrigel-coated flasks prepared with a working solution of 1X Ham's F-12 nutrient mix, without supplementation (Thermo Fisher Scientific, cat. 11765054), 100 U/mL penicillin-streptomycin (Thermo Fisher Scientific, cat. 15140122), and 2.5% Matrigel (Corning Inc., Corning, NY, cat. 354248) for the first three passages. The two PDC lines 997537-175-T-J1-PDC and 415267-285-R-J2-PDC were cultured on uncoated flasks. The 857933-349-R-J2-PDC line was cultured in 6C/Colon 1B media containing advanced DMEM/F-12 (Thermo Fisher Scientific, cat. 12634028), 10 mM HEPES (Thermo Fisher Scientific, cat. 15630080), 1X GlutaMAX supplement (Thermo Fisher Scientific, cat. 35050061), 0.1 mg/mL primocin (InvivoGen, San Diego, CA, cat. ant-pm-2), 10% defined fetal bovine serum, heat inactivated (HyClone Laboratories Inc., Logan, UT, cat. SH30070.03HI), 50% L-WRN conditioned media (ATCC, cat. CRL-3276), 1.25 mM N-Acetyl-L-cysteine (Sigma-Aldrich, cat. A9165), 10 mM nicotinamide (Sigma-Aldrich, cat. N0636), 1X B-27 supplement (Thermo Fisher Scientific, cat. 17504044), 1X N-2 supplement (Thermo Fisher Scientific, cat. […]
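Note: spheroids exposed to compounds for 7 days.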

Broadly, the viability, T/C is the result in the treated group divided by that in the control group, in per cent. In general, IC50 refers to the concentration that gives 50% inhibition. `CCc1cc2c(N3CCc4c(cc(Cn5ccnc5)cc4-c4cn(C)nc4C(F)(F)F)C3=O)ccnc2c(OC)n1`: the IC50 is 3920 nM and 4920 nM and 3550 nM. For the same compound, for the setting “compound 0.0316 µM”, the viability, T/C is 101% and 91.9% and 80.3%. Moreover, the viability, T/C (compound 0.1 µM) was 81% and 77.6% and 71.7%. Besides, for the setting “compound 0.316 µM”, the viability, T/C was 88.4% and 77.1% and 66.4%. Further, the viability, T/C (compound 1 µM) was 65.8% and 68.8% and 64.9%. In addition, the viability, T/C (compound 3.16 µM) is 54.2% and 59.5% and 53.1%. Besides, where the note is “compound 10 µM”, the viability, T/C is 34.8% and 38% and 33.4%.
Consider `CNCc1ccc(-c2[nH]c3cc(F)cc4c3c2CCNC4=O)cc1`, for which the IC50 was 6530 nM and 6300 nM and 9450 nM. Besides, for the setting “compound 0.0316 µM”, the viability, T/C is 86.8% and 88% and 73.1%. Further, the viability, T/C (compound 0.1 µM) was 81.9% and 77.7% and 81.3%. Also, the viability, T/C (compound 0.316 µM) is 63.4% and 89.9% and 53.7%. Where the note is “compound 1 µM”, the viability, T/C was 68.6% and 81.8% and 58.3%. Besides, under “compound 3.16 µM”, the viability, T/C was 51.3% and 64.6% and 58.9%. Also, for the setting “compound 10 µM”, the viability, T/C is 47.6% (2×) and 40.2%.
In the case of `COc1cc(C2c3cc4c(cc3C(OC3OC5COC(C)OC5C(O)C3O)C3COC(=O)C23)OCO4)cc(OC)c1O` (configuration not stated), the IC50 is 47.7 nM and 91.2 nM and 61.7 nM. Besides, the viability, T/C (compound 0.0316 µM) was 60.4% and 73.7% and 73.4%. Further, the viability, T/C (compound 0.1 µM) was 32.3% and 48.6% and 33.4%. Also, the viability, T/C (compound 0.316 µM) is 15.3% and 18.4% and 14.9%. Besides, the viability, T/C (compound 1 µM) was 19.1% and 18.8% and 20.4%. In addition, the viability, T/C (compound 3.16 µM) is 16.7% and 11.9% and 11.2%. Also, the viability, T/C (compound 10 µM) was 6.7% and 6.64% and 6.97%.
For the compound `COc1cc2cc(C(=O)CCC(=O)O)sc2cc1OC`, the IC50 is > 10000 nM. The viability, T/C (compound 0.0316 µM) is 114% and 112% and 90.4%. Moreover, where the note is “compound 0.1 µM”, the viability, T/C is 88.4% and 107% and 83.7%. Moreover, under “compound 0.316 µM”, the viability, T/C was 94% and 105% and 84%. Further, the viability, T/C (compound 1 µM) was 81.1% and 89.5% and 102%. For the same compound, where the note is “compound 3.16 µM”, the viability, T/C is 100% and 110% and 98.6%. Further, the viability, T/C (compound 10 µM) is 88.8% and 101% and 63.2%.
Regarding `COc1ccc([C@@H](O)c2cc(-c3ncnc4cc(N5CCOCC5)ccc34)c(F)cc2Cl)nn1`, the half-inhibitory concentration (IC50) is 684 nM and 894 nM and 830 nM. Besides, the viability, T/C (compound 0.0316 µM) is 79.4% and 93.7% and 78.8%. Besides, the viability, T/C (compound 0.1 µM) was 94.5% and 91% and 91.4%. In addition, the viability, T/C (compound 0.316 µM) was 65.4% and 72.2% and 74.5%. Under “compound 1 µM”, the viability, T/C was 41% and 43.4% and 43.2%. Also, the viability, T/C (compound 3.16 µM) is 30.4% and 40.3% and 25.8%. Moreover, the viability, T/C (compound 10 µM) is 19.4% and 22.7% and 12.3%.
Turning to `COc1cccc(OCCCN)c1-c1cc(Nc2cnc(C#N)cn2)n[nH]1`, the IC50 is < 3.16 nM and 6.13 nM and 5.89 nM. For the same compound, the viability, T/C (compound 0.00316 µM) is 33.5% and 96.3% and 91.2%. Also, the viability, T/C (compound 0.01 µM) is 8.6% and 15.6% and 14.9%. Further, the viability, T/C (compound 0.0316 µM) is 6.55% and 5.13% and 5.86%. Besides, where the note is “compound 0.1 µM”, the viability, T/C was 4.87% and 4.67% and 4.64%. In addition, the viability, T/C (compound 0.316 µM) is 4.09% and 5.43% and 4.13%. In addition, the viability, T/C (compound 1 µM) was 3.68% (2×) and 3.24%.
With `COc1cccc2c1C(=O)c1c(O)c3c(c(O)c1C2=O)CC(O)(C(=O)CO)CC3OC1CC(N)C(O)C(C)O1` (configuration not stated), the 50% inhibitory concentration (IC50) is < 31.6 nM and 114 nM. Besides, the viability, T/C (compound 0.0316 µM) is 16.9% and 19.5% and 19.8%. Where the note is “compound 0.1 µM”, the viability, T/C is 16.4% and 18.4% and 91.1%. Moreover, the viability, T/C (compound 0.316 µM) was 5.17% and 6.51% and 6.09%. Further, the viability, T/C (compound 1 µM) is 1.01% and 0.37% and 0.7%. The viability, T/C (compound 3.16 µM) was 0.33% and 0.32% and 0.25%. The viability, T/C (compound 10 µM) is 0.58% and 0.63% and 0.52%.
`Cn1ncnc1[C@H]1c2n[nH]c(=O)c3cc(F)cc(c23)N[C@@H]1c1ccc(F)cc1`: the concentration for half-maximal inhibition (IC50) is 11.8 nM and 37.5 nM and 14.7 nM. In addition, the viability, T/C (compound 0.000316 µM) is 80.8% and 91.3% and 74.5%. For the same compound, for the setting “compound 0.001 µM”, the viability, T/C is 64% and 85.5% and 71.1%. Moreover, for the setting “compound 0.00316 µM”, the viability, T/C is 54.7% and 74.7% and 71.7%. Under “compound 0.01 µM”, the viability, T/C was 62.7% and 56.4% and 57.5%. In addition, the viability, T/C (compound 0.0316 µM) was 38.1% and 61.4% and 34%. The viability, T/C (compound 0.1 µM) was 29.1% and 35.4% and 36.5%.
Regarding `Nc1ccn(C2OC(CO)C(O)C2(F)F)c(=O)n1` (configuration not stated), the 50% inhibitory concentration (IC50) was < 31.6 nM. In addition, the viability, T/C (compound 0.0316 µM) was 5.66% and 4.03% and 5.85%. Further, the viability, T/C (compound 0.1 µM) was 5.98% and 3.62% and 5.26%. The viability, T/C (compound 0.316 µM) was 6.49% and 4.28% and 5.54%. For the same compound, under “compound 1 µM”, the viability, T/C is 5.15% and 3.77% and 4.65%. Further, the viability, T/C (compound 3.16 µM) is 4.26% and 2.95% and 4.25%. The viability, T/C (compound 10 µM) was 3.15% and 2.31% and 3.29%.
As for `O=C(Nc1ccc(O)c(NS(=O)(=O)c2ccc(F)cc2)c1)c1ccc(-c2ccccc2)cc1`, the IC50 was 6880 nM and 8170 nM and 7070 nM. For the same compound, the viability, T/C (compound 0.0316 µM) is 94% and 91.9% and 101%. Further, the viability, T/C (compound 0.1 µM) is 96.5% and 104% and 103%. In addition, where the note is “compound 0.316 µM”, the viability, T/C is 93.7% and 100% and 103%. For the same compound, the viability, T/C (compound 1 µM) is 92.4% and 99.3% and 78.3%. For the same compound, for the setting “compound 3.16 µM”, the viability, T/C is 73.5% and 88.2% and 76.5%. Moreover, where the note is “compound 10 µM”, the viability, T/C is 38.7% and 41.5% and 39.8%.
As to `O=c1[nH]cc(F)c(=O)[nH]1`, the IC50 was 3450 nM and 1970 nM and 7540 nM. Under “compound 0.0316 µM”, the viability, T/C was 104% and 91.8% and 101%. For the same compound, the viability, T/C (compound 0.1 µM) is 104% and 98.7% and 75.8%. Where the note is “compound 0.316 µM”, the viability, T/C was 93% and 94.3% and 74.7%. Further, the viability, T/C (compound 1 µM) is 69.7% and 67.1% and 72.8%. Moreover, the viability, T/C (compound 3.16 µM) is 50.6% and 38.9% and 57.3%. Also, the viability, T/C (compound 10 µM) was 44.5% and 29.5% and 45.3%.
